Data as given in US20180106782A1, “HIGH THROUGHPUT CARDIOTOXICITY SCREENING PLATFORM” (The Board of Trustees of the Leland Stanford Junior …, priority 2016, published 2018).

System: μpatterned hiPSC-CMs
Test: traction force microscopy of moving microbeads under beating μpatterned hiPSC-CMs
Type: cell-based, human
Details: for absolute values of dmax, VC, VR, ΣFmax, PC and PR: six single cells (FIG. 5)
Procedure: We cultured single hiPSC-CMs on Matrigel micropatterns, which were transferred from printed glass coverslips onto the surface of polyacrylamide hydrogels with a stiffness of 10 kPa as previously described. (Ribeiro 2015a) In summary, Matrigel was diluted 1:10 in L15 medium (Thermo Fisher) and added to the top of elastomeric microstamps composed of polydimethylsiloxane 182 (Dow Corning) to be incubated at 3-4° C. overnight. Microstamps consisted of 2000 μm^2 rectangular features with an aspect ratio of 7:1 (length:width). We gently aspirated Matrigel after the overnight incubation, washed the stamps twice in L15 medium, aspirated L15 medium from the surface and dried it with a low stream of N2 gas. We then used microstamps to micropattern the Matrigel rectangular features on clean glass coverslips by microcontact printing. Matrigel on micropatterns was transferred to the surface of the polyacrylamide substrates during the gelation process by placing the patterned coverslip in contact with the top of the acrylamide prepolymer solution right before gelation. The aqueous prepolymer solution to be gelled was composed of acrylamide (Sigma-Aldrich)(10% w/v), bisacrylamide (Sigma-Aldrich) (0.1% w/v), ammonium persulfate (Sigma-Aldrich) (0.01% w/v) and N,N,N′,N′-tetramethylethylenediamine (Sigma-Aldrich) (0.1% v/v), HEPES (Thermo Fisher) (35 mM) and Milli-Q water. To calculate the forces generated by cells attached to polyacrylamide surfaces with traction force microscopy, green fluorescent microbeads with a diameter of 0.2 μm (Thermo Fisher) were also dispersed in the gel solution to yield a final concentration of 6.25×10^9 microbeads/mL. We gelled acrylamide on top of another coverslip functionalized with 3-(trimethoxysilyl)propyl methacrylate (Sigma-Aldrich), which binds polyacrylamide. […] Once polymerized, polyacrylamide substrates were incubated in PBS for at least 2 hours and the top coverslips were carefully removed with a razor blade. We seeded hiPSC-CMs on these polyacrylamide hydrogel substrates after washing them 3 times with PBS.
We passaged hiPSC-CMs onto micropatterned polyacrylamide devices at a density of 1000 cells/cm^2. For this purpose, cultures of thawed cells were washed twice with PBS and incubated in 1 mL of Accutase for 8-10 min. After observing cell detachment from the bottom of the wells, we quenched Accutase with Dulbecco's modified Eagle's medium (Thermo Fisher) containing 12% fetal bovine serum and counted the concentration of cells in medium with a hemocytometer. Then, we centrifuged cells at 83 rcf for 3 min at room temperature and aspirated the supernatant to resuspend the pelleted cells in the required volume of medium (RPMI-1640 cell-culture medium with 5 μM ROCK inhibitor) for adding 150 μL of cell solution to the surface of hydrogel devices at a concentration of 1000 cells/cm^2. After 1.5 h of incubation, we added 2.5 mL of medium to the well containing hydrogel devices and added fresh medium without ROCK inhibitor after 2 days. Single beating cells on Matrigel patterns were analyzed between 5-10 days after seeding.
We imaged the movement of beating hiPSC-CMs and the displacement of fluorescent microbeads embedded in polyacrylamide substrates with a Zeiss Axiovert 200M inverted microscope equipped with a Zeiss Axiocam MRm CCD camera. This microscope also contained an environmental chamber (PeCon) to set temperature at 37° C. Unless otherwise noted, we acquired microscopy videos while electrically pacing hiPSC-CMs with 10 ms-wide bipolar pulses of electric-field stimulation at 10-15 V with a frequency of 1 Hz (Myopacer, lonOptix).
To induce contractile changes in hiPSC-CMs, we added drugs known to affect CM contractile machinery to the culture medium. We analyzed the mechanical output of cells after adding drugs. […]

CC(C)NCC(O)c1ccc(O)c(O)c1 (stereo not drawn) [isoproterenol]
t̂ (time between peak velocity of contraction and of relaxation) (0.1 μM and 1 μM isoproterenol, six cells, no significant difference between the two concentrations (FIG. 5G)): decreased | br (beat rate) (0.1 μM and 1 μM isoproterenol, six cells, no significant difference between the two concentrations (FIG. 5H)): increased | br (beat rate) (0.1 μM isoproterenol, single cell (FIG. 4D)): increased | absolute values of dmax, VC, VR, ΣFmax, PC and PR (0.1 μM isoproterenol): consistently increased | br (beat rate) (1 μM isoproterenol, single cell (FIG. 4D)): clear increase | ΣFmax, PC and PR (1 μM isoproterenol, single cell (FIG. 4D,E)): substantial decrease | absolute values of dmax, VC, VR, ΣFmax, PC and PR (1 μM isoproterenol): decreased | PR (peak power of relaxation) (ISO 0.1 (μM per FIG. 4), single cell, no ISO: 0.28): 0.36 picoW | ΣFmax (peak force) (ISO 0.1 (μM per FIG. 4), single cell, no ISO: 0.53): 0.58 μN | PC (peak power of contraction) (ISO 0.1 (μM per FIG. 4), single cell, no ISO: 0.7): 0.86 picoW | VR (peak velocity of relaxation) (ISO 0.1 (μM per FIG. 4), single cell, no ISO: 1.05): 0.85 μm/s | VC (peak velocity of contraction) (ISO 0.1 (μM per FIG. 4), single cell, no ISO: 1.68): 1.92 μm/s | PR (peak power of relaxation) (ISO 1 (μM per FIG. 4), single cell, no ISO: 0.28): 0.06 picoW | ΣFmax (peak force) (ISO 1 (μM per FIG. 4), single cell, no ISO: 0.53): 0.15 μN | PC (peak power of contraction) (ISO 1 (μM per FIG. 4), single cell, no ISO: 0.7): 0.1 picoW | VR (peak velocity of relaxation) (ISO 1 (μM per FIG. 4), single cell, no ISO: 1.05): 0.93 μm/s | VC (peak velocity of contraction) (ISO 1 (μM per FIG. 4), single cell, no ISO: 1.68): 0.43 μm/s | inotropic and chronotropic response (extracellular isoproterenol 0.1 μM (FIGS. 4 and 5)): positive inotropic and positive chronotropic responses | inotropic and chronotropic response (isoproterenol increased to 1 μM (FIGS. 4 and 5)): negative inotropic effect, but a stronger chronotropic response

COC(=O)N1CCN(Cc2cccc(NC(=O)Nc3ccc(C)nc3)c2F)CC1 [omecamtiv mecarbil]
mechanical output (inotropy) (0.1 μM and 10 nM omecamtiv mecarbil, videos within 5 minutes after adding, 6 cells (FIG. 10)): decreased mechanical output (negative inotropy) | ΣFmax and br, acute (0.1 μM omecamtiv mecarbil, single cell (FIG. 6D)): slight acute increase | absolute values of PC and PR right after adding (0.1 μM omecamtiv mecarbil, single cell, even decreased in some contractile events (FIG. 6E)): did not vary | PR (peak power of relaxation) (OM 0.1 μM (FIG. 6), row 'acute', single cell, no OM: 0.6): 0.02 picoW | ΣFmax (peak force) (OM 0.1 μM (FIG. 6), row 'acute', single cell, no OM: 0.7): 0.14 μN | PC (peak power of contraction) (OM 0.1 μM (FIG. 6), row 'acute', single cell, no OM: 0.75): 0.04 picoW | VR (peak velocity of relaxation) (OM 0.1 μM (FIG. 6), row 'acute', single cell, no OM: 1.18): 0.18 μm/s | VC (peak velocity of contraction) (OM 0.1 μM (FIG. 6), row 'acute', single cell, no OM: 1.35): 0.29 μm/s | PR (peak power of relaxation) (OM 0.1 μM (FIG. 6), row 'chronic', single cell, no OM: 0.6): 0.59 picoW | ΣFmax (peak force) (OM 0.1 μM (FIG. 6), row 'chronic', single cell, no OM: 0.7): 0.72 μN | PC (peak power of contraction) (OM 0.1 μM (FIG. 6), row 'chronic', single cell, no OM: 0.75): 0.67 picoW | VR (peak velocity of relaxation) (OM 0.1 μM (FIG. 6), row 'chronic', single cell, no OM: 1.18): 1.1 μm/s | VC (peak velocity of contraction) (OM 0.1 μM (FIG. 6), row 'chronic', single cell, no OM: 1.35): 1.22 μm/s | time of contractions (higher concentrations of omecamtiv mecarbil (FIG. 10D)): increase | rate of beating (lower concentrations of omecamtiv mecarbil (FIG. 10E)): increased | variations of t̂ and br between 0.1 μM and 10 nM (omecamtiv mecarbil, within 5 minutes after adding (FIG. 10D,E)): statistically different | instantaneous acute inotropic effect (within 10 seconds of adding 0.1 μM omecamtiv mecarbil, single cell (FIG. 10J)): positive inotropy
